Marks after values point to notes of the source that are not given here.
What was measured:
[1] = test system: mouse hot plate jumping threshold; assay: Analgesic activity, mouse hot plate test; format: in vivo
Excerpt: Analgesic activity of DPA using the mouse hot plate test. The mouse hot plate is a generally recognized method for evaluating analgesic drugs that act on the endorphin system, e.g., morphine-like drugs and drugs that increase endorphin levels, e.g., DPA. Such drugs are useful for treating many kinds of painful conditions, including arthritis, headache, low back pain, musculoskeletal pain, pre-menstrual pain, and dental pain.
In this method, groups of mice (6 albino mice per group, weighing between 22 and 25 grams) are individually placed on a hot plate at 55° C. and a beaker is placed over the mouse. The time for the mouse to jump in an attempt to escape the painful condition is recorded. An analgesic substance is one which increases the threshold to pain, thereby permitting the mouse to remain on the hot plate for longer times. The effect of the drug is compared to that of a saline control. DPA at different doses was injected intra-peritoneally into the mice 2 hours before they were placed on the hot plate, and jumping time determined over the next 1-2 hours. The effect of DPA was compared with that of an injection of saline.
For studies involving combinations of drugs, the combination was injected at the same time. In the studies shown below, the second drug consisted of indomethacin, diclofenac, or acetaminophen. Each of these drugs is used for treating arthritis, as well as many other painful conditions.

[2] = test system: PBQ writhing in mice; assay: Anti-inflammatory activity, mouse phenylbenzylquinone (PBQ) writhing test; format: in vivo; settings: for Number of writhes: counted over 20 minutes
Method: Anti-inflammatory activity of DPA using the mouse phenylbenzylquinone (PBQ) writhing test. This is a generally recognized method for evaluating anti-inflammatory drugs of the aspirin/NSAID type, i.e. those drugs which counteract the action of the prostaglandins. Such drugs are useful for treating conditions such as arthritis in animals and humans.
In this method, a solution of PBQ was injected subcutaneously into groups of 6 mice (male, albino, 22-25 grams). Within a few minutes, the mice began to writhe. DPA was injected intra-peritoneally or given by mouth at different times prior to PBQ. The number of writhes was counted over a period of 20 minutes. The effects of DPA were compared to that of similarly administered saline control.

[3] = test system: PBQ writhing in mice; assay: as above; format: in vivo; settings: for Number of writhes: counted over 20 minutes; remark: listed apart in the source
[4] = test system: carrageenan swelling of the rat paw; assay: Anti-inflammatory activity, rat paw carrageenan method; format: in vivo
Method: Anti-inflammatory activity of DPA using the rat paw carrageenan method. This is a generally recognized method for evaluating anti-inflammatory drugs of the aspirin/NSAID (as used throughout this application NSAID refers to a non-steroidal, anti-inflammatory drug) type or those that counteract the action of the prostaglandins. Such drugs are useful for treating conditions such as arthritis in animals and humans. In this method, the paw of the rat is injected with carrageenan, which causes swelling of the paw due to the accumulation of fluid. […] In this study, DPA was administered by various routes and times into groups of rats (6 male albino rats per group-weight approximately 250 grams) before carrageenan and the degree of swelling was measured by the extent of displacement of water when the paw was immersed into a calibrated cylinder. A placebo consisting of saline solution was similarly administered.

[5] = test system: pain in patients with arthritis and other skeletal diseases; assay: Efficacy of DPA in humans with arthritis and other musculoskeletal diseases (open-label, cross-over); format: in vivo, human
Method: 4. Efficacy of DPA treatment for arthritis and a variety of other musculoskeletal diseases; human studies. Forty-three patients were studied in an open-label, cross-over procedure. Of these, 32 had arthritis. All of the patients had previously been given many treatments, without success, in relieving their pain. Pre-DPA administration treatments used included such potent drugs as Percodan, Darvocet, Valium, and aspirin, as well as acupuncture. Prior to giving DPA 800 mg/day by mouth, all treatments were stopped. Patients were given a card on which they scored their degree of pain, on a scale of 1-4; 1 indicated no relief, 2 indicated approximately 25% relief, 3 indicated approximately 50% relief, and 4 indicated complete relief.

[6] = NSAID alone, 20 mg/kg, hot plate at 55° C.
[7] = DPA 800 mg/day by mouth, 43 patients, 32 with arthritis, self-scored pain relief

For COc1ccc2c(c1)c(CC(=O)O)c(C)n2C(=O)c1ccc(Cl)cc1 [Indomethacin, indomethacin, reference compound], the “Increase in the threshold to jumping, compared to control” value (“Increase in the threshold to jumping” for short) [1, 6] was 0.

For O=C(O)Cc1ccccc1Nc1c(Cl)cccc1Cl [Diclofenac, diclofenac, reference compound], the “Increase in the threshold to jumping” value [1, 6] was 0.

N[C@H](Cc1ccccc1)C(=O)O [DPA, D-phenylalanine] was tested, and the “% inhibition of writhing” value ([2]; intra-peritoneal injection, 2 hours before PBQ, 250 mg/kg) was 73%, the Number of writhes ([2]; intra-peritoneal injection, 2 hours before PBQ, 250 mg/kg, saline 125) was 34 and the “% inhibition of writhing” value ([2]; intra-peritoneal injection, 2 hours before PBQ, 500 mg/kg) was 90%. For the same molecule, the Number of writhes ([2]; intra-peritoneal injection, 2 hours before PBQ, 500 mg/kg, saline 125) was 13, the “% inhibition of writhing” value ([2]; oral administration, 2.5 hours before PBQ, 250 mg/kg) was 10% and the Number of writhes ([2]; oral administration, 2.5 hours before PBQ, 250 mg/kg, saline 148) was 133. For the same molecule, the Number of writhes ([2]; oral administration, 2.5 hours before PBQ, 500 mg/kg, saline 148) was 110, the “% inhibition of writhing” value ([2]; oral administration, 2.5 hours before PBQ, 1000 mg/kg) was 62% and the Number of writhes ([2]; oral administration, 2.5 hours before PBQ, 1000 mg/kg, saline 148) was 56. For the same molecule, the “% inhibition of writhing” value ([3]; oral administration, 2.5 hours before PBQ, 500 mg/kg) was 24%, the “% inhibition of writhing” value ([3]; subcutaneous injection, 6 hours before PBQ, 62.5 mg/kg) was 35% and the Number of writhes ([3]; subcutaneous injection, 6 hours before PBQ, 62.5 mg/kg, saline 166) was 108. For the same molecule, the “% inhibition of writhing” value ([3]; subcutaneous injection, 6 hours before PBQ, 250 mg/kg) was 36%, the Number of writhes ([3]; subcutaneous injection, 6 hours before PBQ, 250 mg/kg, saline 166) was 106 and the “% inhibition of writhing” value ([3]; subcutaneous injection, 6 hours before PBQ, 500 mg/kg) was 75%. For the same molecule, the Number of writhes ([3]; subcutaneous injection, 6 hours before PBQ, 500 mg/kg, saline 110) was 28, the “Increase in the threshold to jumping” value ([1]; DPA 250 mg/kg intra-peritoneally, 2 hours before hot plate at 55° C.) was 3-fold and the “increase of the threshold time to jump, as compared to saline control” value ([1]; mouse hot plate, as shown in Table 3) was “three-fold”. For the same molecule, the “% Inhibition of swelling” value ([4]; oral administration, 150 minutes before carrageenan, 125 mg/kg) was 7%, the “% Inhibition of swelling” value ([4]; oral administration, 150 minutes before carrageenan, 250 mg/kg) was 10% and the “% Inhibition of swelling” value ([4]; oral administration, 150 minutes before carrageenan, 500 mg/kg) was 24%. The “% Inhibition of swelling” value ([4]; oral administration, 150 minutes before carrageenan, 1000 mg/kg) was 62%, the “% Inhibition of swelling” value ([4]; oral administration, 150 minutes before carrageenan, 1500 mg/kg) was 79% and the “% Inhibition of swelling” value ([4]; subcutaneous injection, 120 minutes before carrageenan, 8 mg/kg) was 15%. The “% Inhibition of swelling” value ([4]; subcutaneous injection, 120 minutes before carrageenan, 125 mg/kg) was 37%, the “% Inhibition of swelling” value ([4]; subcutaneous injection, 120 minutes before carrageenan, 500 mg/kg) was 35% and the “% Inhibition of swelling” value ([4]; subcutaneous injection, 6 hours before carrageenan, dose 62.5) was 35%. For the same molecule, the “% Inhibition of swelling” value ([4]; subcutaneous injection, 6 hours before carrageenan, dose 250) was 36%, the “% Inhibition of swelling” value ([4]; subcutaneous injection, 6 hours before carrageenan, dose 500) was 75% and the “Complete relief of pain (number of patients)” value [5, 7] was 2. For the same molecule, the “Excellent relief of pain (number of patients)” value [5, 7] was 7, the “Moderate relief of pain (number of patients)” value [5, 7] was 19 and the “No relief of pain (number of patients)” value ([5]; DPA 800 mg/day by mouth, 43 patients, most of these took DPA for only 1-2 weeks) was 15*. The “effect on pain in humans” value ([5]; DPA alone, 800 mg/day) was “successfully decrease”.

Reference: US20060252727A1, “Medicinal compositions and therapeutic methods for treating arthritis and other painful conditions” (priority 2001, published 2006)
